Structures are written as SMILES. Where two headings read alike, the source gives them in different places.

For the test, the system named is HBeAg level (surrogate marker for cccDNA) in HepDES19 cells. In words: Engineered HepDES19 primary screen assay (HBeAg as surrogate marker for cccDNA). Type of test: cell-based, HBV. From the text: The assay was employed to screen for novel cccDNA inhibitors. HepDES19 is a cccDNA-producing cell line. In this cell line, HBeAg in the cell culture supernatant as surrogate marker, as HBeAg production depends on cccDNA level and activity. HepDES19 is an engineered cell line which contains a 1.1 unit length HBV genome, and pgRNA transcription from the transgene is controlled by Tetracycline (Tet). In the absence of Tet, pgRNA transcription will be induced, but HBV e antigen (HBeAg) could not be produced from this pgRNA due to very short leader sequence before the HBeAg start codon and the start codon is disrupted. Only after cccDNA is formed, the missing leader sequence and start codon mutation would be restored from the 3′-terminal redundancy of pgRNA, and then HBeAg could be synthesized. Therefore, HBeAg could be used as a surrogate marker for cccDNA (Zhou, T. et al., Antiviral Res. (2006), 72(2), 116-124; Guo, H. et al., J. Virol. (2007), 81(22), 12472-12484).
HepDES19 cells were seeded at 2×10^6 cells per T150 flask and cultured with the culture medium (Dulbecco's Modified Eagle Medium: Nutrient Mixture F-12 [DMEM-F12, Gibco Cat. 11320-82], 10% Fetal Bovine Serum [FBS, Clontech Cat. 631101], 0.1 mM Non-Essential Amino Acids Solution [NEAA, Gibco Cat. 11140-050], 50 μg/mL Penicillin-Streptomycin [PS, Invitrogen Cat. 15140-163], 500 μg/mL Geneticin [G418, Invitrogen Cat. 10131-027]) containing 3 μg/mL Tet (Sigma, Cat. 87128) for 5 days. Cells were then seeded at 4×10^6 cells per T150 in the same culture medium as described above in the absence of Tet for 8 days. Cells were then harvested and frozen at density of 2×10^6 cells per mL. For compound testing, the frozen cells were thawed and seeded into 96-well plates at a density of 6×10^4 cells per well. At 24 hrs after seeding, half log serial dilutions of compounds made with Dimethyl sulfoxide (DMSO, Sigma, Cat. D2650) were further diluted with the same culture medium as described above before they were added to the cells to reach desired final compound concentrations and 1% DMSO concentration. Plates were then incubated at 37° C. for another 5 days before measurement of HBeAg level and cell viability. Intracellular HBeAg level were measured with enzyme-linked immunosorbent assay (ELISA) kit (Shanghai Kehua Diagnostic Medical Products Co., Ltd). Cell viability was assessed using Cell Counting Kit-8 (Donjindo, Cat. CK04-20). IC50 values were derived from the dose-response curve using 4 parameter logistic curve fit method.
The compounds of the present invention were tested for their capacity to inhibit extracellular HBeAg level as described herein.

Setting [1] is: read-out: IC50 (HBeAg) in HepDES19 primary screen assay, HepDES19 cells, 5 days incubation with compound, HBeAg by ELISA.
[2] abbreviates: Hepatitis B virus, HepDES19, 120 h, read-out: IC50 (HBeAg) in HepDES19 primary screen assay, HepDES19 cells, 5 days incubation with compound, HBeAg by ELISA.

For orientation: IC50 means the concentration that gives 50% inhibition. Consider `O=C(O)[C@H]1C[C@H]1OCCOc1ccc(-c2cc(=O)c3cccc(Cl)c3o2)cc1` (single isomer, unassigned) [Example 5-A, 2-[2-[4-(8-chloro-4-oxo-chromen-2-yl)phenoxy]ethoxy]cyclopropanecarboxylic acid], for which the IC50 under setting [1] worked out at 1.36 µM.

As for `COC(=O)C1CC(OCCOc2ccc(-c3oc4c(Cl)cc(F)cc4c(=O)c3OC(F)(F)F)cc2)C1` (single isomer, unassigned) [Example 62-B, methyl 3-[2-[4-[8-chloro-6-fluoro-4-oxo-3-(trifluoromethoxy)chromen-2-yl]phenoxy]ethoxy]cyclobutanecarboxylate], the IC50 under setting [1] was determined as 1.32 µM. On to `CCOC(=O)COCCOc1ccc(-c2cc(=O)c3ccc(Br)c(Cl)c3o2)cc1` [Example 71, ethyl 2-[2-[4-(7-bromo-8-chloro-4-oxo-chromen-2-yl)phenoxy]ethoxy]acetate], for which the IC50 under setting [2] is 9.3 µM. The same measure, in the same setting: as for `NC(=O)COCCOc1ccc(-c2cc(=O)c3cccc(Cl)c3o2)cc1` [Example 61, 2-[2-[4-(8-chloro-4-oxo-chromen-2-yl)phenoxy]ethoxy]acetamide], the figure is 0.144 µM; as for `O=C(O)C1CC(OCCOc2ccc(-c3cc(=O)c4cccc(Cl)c4o3)c(N3CCOCC3)c2)C1` (stereo not drawn) [Example 60, 3-[2-[4-(8-chloro-4-oxo-chromen-2-yl)-3-morpholino-phenoxy]ethoxy]cyclobutanecarboxylic acid], 4.84 µM; as for `N#Cc1cc(Cl)c2oc(-c3ccc(OCCOC4CC(C(=O)O)C4)cc3)cc(=O)c2c1` (stereo not drawn) [Example 22, 3-[2-[4-(8-chloro-6-cyano-4-oxo-chromen-2-yl)phenoxy]ethoxy]cyclobutanecarboxylic acid], 13 µM.

For the compound `O=C(O)COCCOc1ccc(-c2cc(=O)c3c(F)ccc(Cl)c3o2)cc1` [Example 37, 2-[2-[4-(8-chloro-5-fluoro-4-oxo-chromen-2-yl)phenoxy]ethoxy]acetic acid], the IC50 under setting [2] was 8.97 µM. As to `O=c1cc(-c2ccc(OCCO[C@H]3CC[C@@H](C(=O)O)CC3)cc2)oc2c(Cl)cccc12` (single isomer, unassigned) [Example 7-B, 4-[2-[4-(8-chloro-4-oxo-chromen-2-yl)phenoxy]ethoxy]cyclohexanecarboxylic acid], the IC50 under setting [1] amounted to 19.7 µM.

`O=C(O)C1CC(OCCOc2ccc(-c3oc4c(Cl)cccc4c(=O)c3Br)cc2)C1` (stereo not drawn) [Example 64, 3-[2-[4-(3-bromo-8-chloro-4-oxo-chromen-2-yl)phenoxy]ethoxy]cyclobutanecarboxylic acid]: under setting [2], the IC50 worked out at 5.5 µM.

`O=c1cc(-c2ccc(OCCO[C@H]3CC[C@@H](C(=O)O)CC3)cc2)oc2c(Cl)cccc12` (single isomer, unassigned) [Example 7-A, 4-[2-[4-(8-chloro-4-oxo-chromen-2-yl)phenoxy]ethoxy]cyclohexanecarboxylic acid]: the IC50 under setting [2] was determined as 15.4 µM. On the same count and under the same terms, under `O=C(O)C1CC(OCCOc2ccc(-c3oc4c(Cl)cccc4c(=O)c3OCc3ccccc3)cc2)C1` (stereo not drawn) [Example 65, 3-[2-[4-(3-benzyloxy-8-chloro-4-oxo-chromen-2-yl)phenoxy]ethoxy]cyclobutanecarboxylic acid] stands 6.5 µM; under `O=C(O)COCCOc1ccc(-c2cc(=O)c3cccc(Cl)c3o2)cc1` [Example 9, 2-[2-[4-(8-chloro-4-oxo-chromen-2-yl)phenoxy]ethoxy]acetic acid], 2.46 µM; under `O=C(O)C1CC(OCCOc2ccc(-c3cc(=O)c4cc(N5CCCC5=O)cc(Cl)c4o3)cc2)C1` (stereo not drawn) [Example 68, 3-[2-[4-[8-chloro-4-oxo-6-(2-oxopyrrolidin-1-yl)chromen-2-yl]phenoxy]ethoxy]cyclobutanecarboxylic acid], 10.1 µM. Regarding `Cc1ccc(Cl)c2oc(-c3ccc(OCCO[C@H]4C[C@@H](C(=O)O)C4)cc3)cc(=O)c12` [Example 31, Cis-3-[2-[4-(8-chloro-5-methyl-4-oxo-chromen-2-yl)phenoxy]ethoxy]cyclobutanecarboxylic acid], under setting [2], the IC50 was found to be 0.78 µM.

`CC(C)Oc1ccc(Cl)c2oc(-c3ccc(OCCO[C@H]4C[C@@H](C(=O)O)C4)cc3)cc(=O)c12` [Example 27, Cis-3-[2-[4-(8-chloro-5-isopropoxy-4-oxo-chromen-2-yl)phenoxy]ethoxy]cyclobutanecarboxylic acid]: under setting [2], the IC50 worked out at 7.68 µM. Same read-out and setting: under `O=C(O)C1CC(OCCOc2ccc(-c3cc(=O)c4cc(F)cc(Cl)c4o3)cc2)C1` (stereo not drawn) [Example 20, 3-[2-[4-(8-chloro-6-fluoro-4-oxo-chromen-2-yl)phenoxy]ethoxy]cyclobutanecarboxylic acid] stands 0.7 µM. Still for that read-out and setting: as for `COc1c(-c2ccc(OCCO[C@H]3C[C@@H](C(=O)O)C3)cc2)oc2c(Cl)cccc2c1=O` [Example 56, Cis-3-[2-[4-(8-chloro-3-methoxy-4-oxo-chromen-2-yl)phenoxy]ethoxy]cyclobutanecarboxylic acid], the figure is 29.6 µM.

Consider `O=C(O)C1CC(OCCOc2ccc(-c3cc(=O)c4ccc(C5CC5)c(Cl)c4o3)cc2)C1` (stereo not drawn) [Example 70, 3-[2-[4-(8-chloro-7-cyclopropyl-4-oxo-chromen-2-yl)phenoxy]ethoxy]cyclobutanecarboxylic acid], for which the IC50 under setting [2] stood at 17.2 µM.

As for `O=C(O)C1CC(OCCOc2ccc(-c3cc(=O)c4ccc(C5CC5)c(Cl)c4o3)cc2)C1` (single isomer, unassigned) [Example 70-A, 3-[2-[4-(8-chloro-7-cyclopropyl-4-oxo-chromen-2-yl)phenoxy]ethoxy]cyclobutanecarboxylic acid], under setting [1], the IC50 is 19.8 µM.

Consider `Cc1cccc2c(=O)cc(-c3ccc(OCCO[C@H]4C[C@@H](C(=O)O)C4)cc3)oc12` [Example 35, Cis-3-[2-[4-(8-methyl-4-oxo-chromen-2-yl)phenoxy]ethoxy]cyclobutanecarboxylic acid], for which, under setting [2], the IC50 stood at 13.9 µM. Regarding `CC(C)c1cc(-c2cc(=O)c3cccc(Cl)c3o2)ccc1OCCOC1CC(C(=O)O)C1` (stereo not drawn) [Example 48, 3-[2-[4-(8-chloro-4-oxo-chromen-2-yl)-2-isopropyl-phenoxy]ethoxy]cyclobutanecarboxylic acid], the IC50 under setting [2] was found to be 7.68 µM. Consider `O=C(O)COCCOc1ccc(-c2oc3c(Cl)cccc3c(=O)c2O)cc1` [Example 59, 2-[2-[4-(8-chloro-3-hydroxy-4-oxo-chromen-2-yl)phenoxy]ethoxy]acetic acid], for which the IC50 under setting [2] is 20.2 µM. Same read-out and setting: under `O=c1cc(-c2ccc(OCCO[C@H]3C[C@@H](C(=O)O)C3)cc2)oc2c(C3CC3)cccc12` [Example 34, Cis-3-[2-[4-(8-cyclopropyl-4-oxo-chromen-2-yl)phenoxy]ethoxy]cyclobutanecarboxylic acid] stands 16 µM; under `COC(=O)[C@H]1C[C@@H](OCCOc2ccc(-c3cc(=O)c4cccc(Cl)c4o3)nn2)C1` [Example 41, Cis-methyl 3-[2-[6-(8-chloro-4-oxo-chromen-2-yl)pyridazin-3-yl]oxyethoxy]cyclobutanecarboxylate], 12.8 µM.

The record behind these values is patent publication US12012390B2, “Flavone compounds for the treatment and prophylaxis of hepatitis B virus disease” (priority 2018, dated 2024).
